PMC5064022, “KCNE1 induces fenestration in the Kv7.1/KCNE1 channel complex that allows for highly specific pharmacological targeting” (Nature Communications, 2016)

Legend:
Type in all cases: cell-based
[1] = molecular target: T1, Kv7.1/KCNE1 (Homo sapiens, UniProt P15382+P51787); test: Two electrode voltage clamp of Kv7.1/KCNE1 currents in Xenopus oocytes; conditions: 10 µM; percent change in current amplitude at end of pulse to +40 mV
Procedure: Template cDNAs (wildtype or mutant human Kv7.1 in pSGEM, wildtype human KCNE1 in pSP64) were linearized with a suitable restriction enzyme (Nhe I/pSGEM, Eco RI/pSP64). cRNA was synthesized from 1 μg linearized cDNA by in vitro transcription (mMessage mMachine T7 or SP6 kit, Ambion, Life Technologies Darmstadt, Germany). cRNA concentrations were determined by photometry (Nanodrop, Peqlab, Erlangen, Germany) and cRNA quality was checked by agarose gel electrophoresis.
Oocytes were commercially obtained from EcoCyte Bioscience (Castrop-Rauxel, Germany). Injection of stage 4 or 5 oocytes was performed using a nanoliter injector 2000 (WPI, Berlin, Germany). For standard pharmacological measurements, each oocyte was injected with 5 ng Kv7.1 cRNA alone or with 1 ng KCNE1 cRNA. To investigate the influence of KCNE1 on AC-1 sensitivity of Kv7.1 tetramers, 5 ng Kv7.1 cRNA was injected with different amounts of KCNE1 cRNA (0 ng, 0.005 ng, 0.05 ng, 0.5 ng and 5 ng). Injected oocytes were maintained in an incubator at 17 °C for 4–5 days in standard Barth solution (EcoCyte Bioscience, Castrop-Rauxel, Germany) supplemented with 90 μg ml^−1 theophylline, 63 μg ml^−1 penicillin, 40 μg ml^−1 streptomycin, and 100 μg ml^−1 gentamycin until used for two electrode voltage clamp (TEVC) measurements.
TEVC measurements were performed using a TurboTec-10CD amplifier (npi Electronic, Tamm, Germany) and an ITC-16 AD/DA-interface (Instrutech Corporation, Port Washington, New York, USA). Pulse and PulseFit software (HEKA, Lambrecht/Pfalz, Germany) was used for data acquisition and analysis. During TEVC recordings, oocytes were constantly perfused with control solution (ND96, containing in mM: 96 NaCl, 4 KCl, 1.8 CaCl2, 1 MgCl2, 5 mM HEPES, pH 7.6 supplemented 0.1–0.3% DMSO). AC solutions were freshly prepared in ND96 from a 10 mM DMSO stock solution. Glass capillaries were pulled to a fine point to produce current and voltage electrodes that were back-filled with 3 M KCl. When filled with this solution, electrode resistances ranged from 0.5–1.5 MΩ. Different voltage pulse protocols were used as follows: (1) To study the inhibitory effect of different AC derivatives, Kv7.1/KCNE1 currents were elicited by repetitive 7 s pulses to +40 mV applied every 30 s from a holding potential of −80 mV. (2) To analyse the voltage dependence of channel activation, currents were elicited by 10 s pulses to test voltages between −100 and +60 mV, applied in 20 mV increments from a holding potential of −80 mV. Tail currents were recorded at −120 mV. For control we always expressed KCNE1 alone along mutant channels and mutant currents were only taken into account when it reached at least 2.5- to 3-fold the size of the background Xenopus-Kv7.1/hKCNE1 currents.
Electrophysiological data were analysed using PulseFit software (HEKA, Lambrecht/Pfalz, Germany) and GraphPad Prism (GraphPad Software, Inc., La Jolla, California, USA). Channel inhibition was determined as reduction of whole cell current amplitude at the end of a 7 s test pulse to +40 mV. The concentration of compound that caused half-maximal inhibition (IC50) were determined using the Hill equation: Idrug/Imax=1/(1+[C/IC50]^H), where Idrug is the current amplitude in the presence of the drug, Imax is the current amplitude before drug application, C is the drug concentration and H is the Hill coefficient.

[2] = molecular target: T1, Kv7.1/KCNE1; test: Current inhibition in CHO cells stably expressing Kv7.1/KCNE1
Procedure: Figure 5 PAL-based approach to identify AC binding site. (a) Schematic view of the PAL-based approach to investigate the binding site of AC-1. (b) Concentration-response curve for AC-10, the UV-active diazirine derivate of AC-1. The inhibitory effect of AC-10 was determined in CHO cells stably expressing Kv7.1/KCNE1. Inhibition was determined as percent change in current amplitude at the end of the depolarizing test pulse to +40 mV (±s.e.m.). (c) A new cDNA-construct (Kv7.1myc-2A-KCNE1myc in pXOOM) allows for functional expression of myc-tagged Kv7.1 and KCNE1 in HEK293T cells. In this construct, cDNAs of Kv7.1 and KCNE1 are linked via the T2A peptide sequence, which mediates co-translational protein cleavage. (d) Western blot analysis of affinity purified Kv7.1 and KCNE1 proteins. Kv7.1myc was purified using myc-agarose beads KCNE1 was purified using anti-KCNE1 coupled protein-A-sepharose beads (right). In both western blots, ‘+' indicates transfected cells, ‘−' indicates non-transfected control cells. Antibodies used for affinity purification are detected in ‘+' and ‘−'. […] It should be noted, that KCNE1, as a myc-tagged protein, should also be purified using the myc-agarose beads. […] Thus, KCNE1 expression was instead proven using the KCNE1 antibody. (e) Functional expression of Kv7.1myc-2A-KCNE1myc in HEK293T cells (scale bars indicate 1 nA, 1 s).

[3] = tested on: Kv7.1/KCNE1 channels; test: Reversibility of AC-10 current inhibition by washout, with or without UV irradiation
[4] = tested on: homomeric Kv7.1 channels; test: AC-10 on homomeric Kv7.1 channels

Structure (SMILES) | inhibition at 10 µM [1] [%] | also measured
Cc1cc(Cl)ccc1OC(C)(C)C(=O)NC1[C@@H]2CC3C[C@H]1CC(N)(C3)C2 (stereo partly shown) [AC-4, N-[(1 R,3 S)-5-amino-2-adamantyl]-2-(4-chloro-2-methyl-phenoxy)-2-methyl-propanamide] | 4.2 ± 6.1 | –
Cc1cc(Cl)ccc1OC(C)(C)C(=O)NC1C2CC3CC1CC(O)(C3)C2 (stereo not shown) [AC-5] | 40.9 ± 1.4 | –
Cc1cc(Cl)ccc1OC(C)(C)C(=O)NC1C2CC3CC1CC(C(=O)O)(C3)C2 (stereo not shown) [AC-6] | 64.6 ± 6.6 | –
Cc1cc(Cl)ccc1OC(C)(C)C(=O)NC1[C@@H]2CC3C[C@H]1CC(NC(=O)CCC1(C)N=N1)(C3)C2 (stereo partly shown) [AC-10, 2-(4-chloro-2-methyl-phenoxy)-2-methyl-N-[(1 R,3 S)-5-[3-(3-methyldiazirin-3-yl)propanoylamino]-2-adamantyl]propanamide] | – | Hill-coeff. [2]: 1.7; IC50 ([2]; +40 mV): 16 nM; inhibition after 38 min washout ([3]; after UV irradiation): 75%; inhibition after 38 min washout ([3]; non UV-activated): 40%; inhibition of homomeric Kv7.1 channels [4]: did not inhibit

Now from value to compound, other results behind:

inhibition at 10 µM [1] [%] | Structure (SMILES) | also measured
86.8 ± 3 | Cc1cc(Cl)ccc1OC(C)(C)C(=O)NC1C2CC3CC1CC(NS(C)(=O)=O)(C3)C2 (stereo not shown) [AC-2] | –
73.7 ± 2.9 | CC(C)(Oc1cccc(C(F)(F)F)c1)C(=O)NC1C2CC3CC1CC(NS(C)(=O)=O)(C3)C2 (stereo not shown) [AC-3] | –
38 ± 4.4 | Cc1cc(Cl)ccc1OC(C)(C)C(=O)NC1C2CC3CC1CC(NS(=O)(=O)N(C)C)(C3)C2 (stereo not shown) [AC-7] | –
74.5 ± 6.2 | CCOC(=O)NC12CC3CC(C1)C(NC(=O)C(C)(C)Oc1ccc(Cl)cc1C)C(C3)C2 (stereo not shown) [AC-8] | –
78.6 ± 3.3 | Cc1cc(Cl)ccc1OC(C)(C)C(=O)NC1C2CC3CC1CC(NC(=O)CC(C)C)(C3)C2 (stereo not shown) [AC-9] | –
